Source: patent publication US9637795B2, “Methods and compositions for predicting response to eribulin” (Eisai R&D Management Co., Ltd., priority 2011, dated 2017)
Counter-ions that a name gives are not always drawn.

Key:
BT-549 cells = assay: IC20 of E7389 for BT-549 cells; assay type: cell-based; conditions: Homo sapiens
MDA-MB-231 = assay: IC20 of E7389 for the cell line tested (MDA-MB-231); assay type: cell-based; conditions: Homo sapiens
Source text: Transfection conditions for human breast cancer cell lines MDA-MB-231 (ATCC Catalog No. HTB26™) and BT-549 (ATCC Catalog No. HTB122™) were optimized using transfection reagent DharmaFect 1 from Dharmacon. The MDA-MB-231 and BT-549 cell lines have been reported to be Estrogen Receptor (ER) negative, Progesterone Receptor (PR) negative and HER-2 negative (triple negative). As a non-targeting negative control we used Silencer Negative Control #1 siRNA from Applied Biosystems. The siGENOME TOX (siTOX) Transfection Control (Dharmacon), an RNA duplex designed to induce cell death, was used as a positive control for cell proliferation assays. A reverse transfection procedure in which siRNA was first mixed with transfection reagent and then cells were added to the well, was used in all experiments. Cell viability was compared in cells treated with medium, negative control siRNA and siTOX reagent combined with different amount of DharmaFect 1. […]
The whole human genome siRNA library was purchased from Dharmacon. […] Cell viability was determined at 96 hours after transfection by CellTiter-Glo luminescent assay from Promega. […] Plates were mixed for 2 minutes on a horizontal shaker, incubated for 10 minutes and read on an EnVision® multilabel plate reader from PerkinElmer.

For `C=C1C[C@@H]2CC[C@@]34C[C@H]5O[C@H]6C(O3)[C@H]3OC(CC[C@@H]3O[C@H]6[C@H]5O4)CC(=O)C[C@@H]3[C@@H](OC)[C@@H](C[C@H](O)CN)O[C@H]3CC3O[C@@H](CCC1O2)C[C@@H](C)C3=C` [E7389, 11,15:18,21:24,28-Triepoxy-7,9-ethano-12,15-methano-9H,15H-furo[3,2-i]furo[2′,3′:5,6]pyrano[4,3-b][1,4]dioxacyclopentacosin-5(4H)-one, 2-[(2S)-3-amino-2-hydroxypropyl]hexacosahydro-3-methoxy-26-methyl-20,27-bis(methylene)-, (2R,3R,3aS,7R,8aS,9S,10aR,11S,12R,13aR,13bS,15S,18S,21S,24S,26R,28R,29aS)-methanesulfonate (salt)], the IC20 (BT-549 cells) was 0.25 nM and the IC20 (MDA-MB-231) was 0.75 nM.
